Read-outs that look alike come from different tables or passages of the source.
How the values were obtained:
[1] = target: Recombinant Human NF-kappaB-Inducing Kinase (NIK/MAP3K14) (Homo sapiens, UniProt Q99558); test: Inhibition of auto-phosphorylation of recombinant human NIK/MAP3K14 activity (AlphaScreen); assay type: biochemical; details: 5 μM ATP, 1 nM NIK, average if tested more than once
Method: Assay 1: Inhibition of Auto-Phosphorylation of Recombinant Human NF-kappaB-Inducing Kinase (NIK/MAP3K14) Activity (AlphaScreen™)
NIK/MAP3K14 auto-phosphorylation activity was measured using the AlphaScreen™ (αscreen) format (Perkin Elmer). All compounds tested were dissolved in dimethyl sulfoxide (DMSO) and further dilutions were made in assay buffer. The final DMSO concentration was 0.7% (v/v) in assays. The assay buffer was 50 mM Tris pH 7.5 containing 1 mM EGTA (ethylene glycol tetraacetic acid), 1 mM DTT (dithiothreitol), 0.1 mM Na3VO4, 5 mM MgCl2, and 0.01% Tween®20. The assays were carried out in 384 well Proxiplates (Perkin Elmer). The incubations consisted of the compound, 5 μM Adenosine-5′-triphosphate (ATP), and 1 nM NIK/MAP3K14. Incubations were initiated by the addition of GST-tagged NIK/MAP3K14 enzyme, carried out for 2 h at 25° C. and terminated by addition of stop buffer containing anti-phospho-IKK Ser176/180 antibody. Protein A Acceptor and Glutathione-Donor beads were added before reading using an EnVision Multilabel Plate Reader (Perkin Elmer). The signal obtained in the wells was normalized using high (full enzyme activity, 0.7% DMSO) and low controls (no enzyme activity, 0.7% DMSO, no ATP). IC50's were determined by fitting a sigmoidal curve to % inhibition of control versus Log10 compound concentration.

[2] = tested on: p-IKKa levels in L363 (NIK translocated multiple myeloma) cells; test: Effect of compounds on p-IKKa levels in L363 (NIK translocated multiple myeloma) cells (AlphaLISA SureFire Ultra p-IKKa Ser176/180); assay type: cell-based, human
Method: Assay 2: Effect of Compounds on p-IKKa Levels in L363 (NIK Translocated Multiple Myeloma) Cells
All compounds tested were dissolved and serially diluted in DMSO, 1:3 dilution for 11 points in an Echo compatible plate. 100% DMSO was added to columns 12 and 24 of the plate to serve as high and low signal controls. This compound plate was used to spot 20 nL of compound or DMSO into a Greiner 384 well TC plate (781080). The final DMSO concentration was 0.3% (v/v) in cell assays. Human L363 cells (ATCC) were cultured in RPM11640 medium supplemented with GlutaMax, non-essential amino acids, sodium pyruvate and 10% fetal bovine serum. Cells were routinely maintained at densities of 0.2×10^6 cells per ml-2×10^6 cells per mL at 37° C. in a humidified 5% CO2 atmosphere incubator. Cells were passaged twice a week splitting back to obtain the low density. The day before the assay, cells were washed twice in HBSS (Hank's Balanced Salt Solution), resuspended in Dulbecco's Modified Eagle Medium (DMEM)+0.5% IgG and protease free BSA (Jackson Immuno Research Laboratories), +/−250 ng/ml recombinant human B-cell activating factor (BAFF/BLyS/TNFSF13B) and incubated overnight at 37° C. in a humidified 5% CO2 atmosphere (bulk stimulation with or without BAFF). The next day, the cell concentration was adjusted to 1×10^7 cells/ml in DMEM+/−250 ng/ml BAFF+/−10 μM MG132 and plated at 10 μl/well into compound or DMSO spotted 384 well TC plates. Seeded cells were incubated at 37° C. in a humidified 5% CO2 atmosphere for 6 h. After 6 h, the plates were removed from the incubator and cell lysis was achieved by the addition of 2.5 μl 5× lysis buffer containing protease and phosphatase inhibitors, followed by shaking on a plate shaker at room temperature for 15 min. At the end of this incubation, lysed cells were sequentially treated and incubated with acceptor and donor bead mixes according to the manufacturer's protocol for a 1 plate/2-incubation suspension cell assay (AlphaLISA SureFire Ultra p-IKKa (Ser 176/180) Assay Kit (Perkin Elmer). Plates were read using an EnVision Multilabel Plate Reader (Perkin Elmer). Within an experiment, a concentration response curve for each compound was run in duplicate. The signal obtained in the test wells was normalized using high signal (BAFF stimulated cells, DMSO, MG132) and low signal (unstimulated cells, DMSO) controls. To determine the IC50, a sigmoidal curve was fitted to the plot of % inhibition versus Log10 compound concentration.

[3] = Homo sapiens, L-363, p-IKKa levels in L363 cells, average if tested more than once, read-out: Assay 2 IC50
[4] = p-IKKa levels in L363 cells, average if tested more than once, read-out: Assay 2 IC50

Sequence of Recombinant Human NF-kappaB-Inducing Kinase (NIK/MAP3K14) (Q99558 whole entry): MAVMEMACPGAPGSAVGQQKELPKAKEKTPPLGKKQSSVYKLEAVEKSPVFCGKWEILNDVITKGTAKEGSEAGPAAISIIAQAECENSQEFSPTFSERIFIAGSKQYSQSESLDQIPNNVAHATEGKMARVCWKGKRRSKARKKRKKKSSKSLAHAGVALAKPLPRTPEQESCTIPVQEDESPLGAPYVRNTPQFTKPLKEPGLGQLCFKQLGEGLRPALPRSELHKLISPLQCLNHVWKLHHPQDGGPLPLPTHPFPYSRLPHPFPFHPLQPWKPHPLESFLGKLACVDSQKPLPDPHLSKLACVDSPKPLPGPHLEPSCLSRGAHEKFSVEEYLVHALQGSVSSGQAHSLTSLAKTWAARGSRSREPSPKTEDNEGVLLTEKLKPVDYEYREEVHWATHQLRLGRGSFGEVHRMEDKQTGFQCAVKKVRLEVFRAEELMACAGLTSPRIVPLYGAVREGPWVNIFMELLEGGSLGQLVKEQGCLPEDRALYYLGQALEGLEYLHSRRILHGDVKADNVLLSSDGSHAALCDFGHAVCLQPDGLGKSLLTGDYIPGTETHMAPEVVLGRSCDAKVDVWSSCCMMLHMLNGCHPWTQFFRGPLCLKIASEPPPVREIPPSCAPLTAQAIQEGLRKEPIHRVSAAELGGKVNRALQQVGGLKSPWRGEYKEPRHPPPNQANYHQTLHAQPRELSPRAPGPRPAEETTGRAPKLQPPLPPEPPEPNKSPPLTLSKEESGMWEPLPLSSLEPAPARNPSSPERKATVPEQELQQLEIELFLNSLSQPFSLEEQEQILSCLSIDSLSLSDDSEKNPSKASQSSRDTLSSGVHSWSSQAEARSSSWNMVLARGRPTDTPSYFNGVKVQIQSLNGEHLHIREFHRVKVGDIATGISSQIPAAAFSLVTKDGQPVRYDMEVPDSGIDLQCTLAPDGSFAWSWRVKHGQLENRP

Row | Compound | IC50 [1] | IC50 [2, 3] | IC50 [2, 4] | IC50 ([2]; Homo sapiens, L-363, read-out: Assay 2 IC50)
1 | CN1CC[C@@](O)(c2ccnc(-c3ccn(-c4ccnc(Nc5ccn(C)n5)n4)n3)c2)C1=O (racemic) [Example 30, (R,S)-3-Hydroxy-1-methyl-3-(2-(1-(2-((1-methyl-1H-pyrazol-3-yl)amino)pyrimidin-4-yl)-1H-pyrazol-3-yl)pyridin-4-yl)pyrrolidin-2-one] | < 100 nM | 100 to 500 nM |  | 
2 | CN1CCC(O)(c2ccnc(-c3cccc(-c4ccnc(Nc5ccn(C)n5)n4)n3)c2)C1=O (racemic) [Example 31, (R,S)-3-Hydroxy-1-methyl-3-(6′-(2-((1-methyl-1H-pyrazol-3-yl)amino)pyrimidin-4-yl)-[2,2′-bipyridin]-4-yl)pyrrolidin-2-one] | > 501 nM | > 501 nM |  | 
3 | Cc1cn(-c2ccnc(Nc3ccn(C)n3)n2)nc1-c1cc(C2(O)CCN(C)C2=O)ccn1 (racemic) [Example 32, (R, S)-3-Hydroxy-1-methyl-3-(2-(4-methyl-1-(2-((1-methyl-1H-pyrazol-3-yl)amino)pyrimidin-4-yl)-1H-pyrazol-3-yl)pyridin-4-yl)pyrrolidin-2-one] | < 100 nM | > 501 nM |  | 
4 | CN1C(=O)[C@@](O)(c2cccc(-c3nc(-c4ccnc(Nc5ccn(C)n5)n4)cs3)c2)C[C@H]1C(F)(F)F (relative stereo) [Example 38, (trans)-3-hydroxy-1-methyl-3-(3-(4-(2-((1-methyl-1H-pyrazol-3-yl)amino)pyrimidin-4-yl)thiazol-2-yl)phenyl)-5-(trifluoromethyl)pyrrolidin-2-one] | < 100 nM |  | 100 to 500 nM | 
5 | CN1CC[C@@](O)(c2cccc(-c3nc(-c4ccnc(Nc5cnn(C6CCOC6)c5)n4)cs3)c2)C1=O (single isomer, unassigned) [Example 18] | < 100 nM | 100 to 500 nM |  | 
6 | CN1CC[C@@](O)(c2cccc(-c3nc(-c4ccnc(Nc5cnn(C6CCOC6)c5)n4)cs3)c2)C1=O (single isomer, unassigned) [Example 19] | < 100 nM |  | < 100 nM | 
7 | CN1CC[C@@](O)(c2cc(-c3csc(-c4ccnc(Nc5ccn(C)n5)n4)n3)ccc2F)C1=O (single isomer, unassigned) [Example 24] | > 501 nM | > 501 nM |  | 
8 | CN1CC[C@](O)(c2cc(-c3csc(-c4ccnc(Nc5ccn(C)n5)n4)n3)ccc2F)C1=O (single isomer, unassigned) [Example 25] | 100 to 500 nM | > 501 nM |  | 
9 | CN1CCC(O)(c2cc(F)cc(-c3csc(-c4ccnc(Nc5ccn(C)n5)n4)n3)c2)C1=O (single isomer, unassigned) [Example 26, 3-(3-fluoro-5-(2-(2-((1-methyl-1H-pyrazol-3-yl)amino)pyrimidin-4-yl)thiazol-4-yl)phenyl)-3-hydroxy-1-methylpyrrolidin-2-one] | > 501 nM |  | > 501 nM | 
10 | CN1CCC(O)(c2cc(F)cc(-c3csc(-c4ccnc(Nc5ccn(C)n5)n4)n3)c2)C1=O (single isomer, unassigned) [Example 27, 3-(3-fluoro-5-(2-(2-((1-methyl-1H-pyrazol-3-yl)amino)pyrimidin-4-yl)thiazol-4-yl)phenyl)-3-hydroxy-1-methylpyrrolidin-2-one] | < 100 nM |  | 100 to 500 nM | 
11 | CN1CCC(O)(c2ccc(F)c(-c3csc(-c4ccnc(Nc5ccn(C)n5)n4)n3)c2)C1=O (single isomer, unassigned) [Example 28, 3-(4-fluoro-3-(2-(2-((1-methyl-1H-pyrazol-3-yl)amino)pyrimidin-4-yl)thiazol-4-yl)phenyl)-3-hydroxy-1-methylpyrrolidin-2-one] | < 100 nM |  | < 100 nM | 
12 | Cc1cncnc1Nc1nccc(-c2csc(-c3cccc([C@]4(O)CCN(C)C4=O)c3)n2)n1 [Example 105, (R)-3-hydroxy-1-methyl-3-(3-(4-(2-((5-methylpyrimidin-4-yl)amino)pyrimidin-4-yl)thiazol-2-yl)phenyl)pyrrolidin-2-one] |  |  |  | > 501 nM
13 | Cc1cc(CNc2nccc(-c3csc(-c4cccc([C@]5(O)CCN(C)C5=O)c4)n3)n2)n[nH]1 [Example 195] |  | > 501 nM |  | 

From patent publication US20250304567A1, “PYRROLIDIONE DERIVATIVES AS INHIBITORS OF NF KAPPA B INDUCING KINASE” (priority 2022, published 2025)
